Experimental data taken from patent US20070202547A1, “Methods For Detecting Substances Which Bind To The Amyloid Precursor Protein Or Beta Amyloid Fragments, And Binding Compounds” (priority 2004, published 2007).

Experiments:
BACE1 = assay: BACE cleavage of the full length APP; assay type: biochemical; conditions: result in words
gamma-secretase = gamma-secretase (Homo sapiens, UniProt P05067); assay: Gamma-secretase cleavage of CTFβ substrate (HeLa cell membrane extract); assay type: biochemical; conditions: Aβ40 detection with 6E-10/G2-10, read-out: CTFβ CLEAVAGE AT POSITION 40
Description: Accordingly, Examples 1-4 were tested for their ability to inhibit gamma-secretase cleavage of both a full-length CTFβ substrate, as described in Li, 2000, Proc. Natl Acad Sci. 97:6138-6143. The assays were carried out as follows:
Inhibition of CTFβ Cleavage
• 10 μL 10× protease inhibitor cocktail (Roche, cat # 1836153) • 25 μL 4× Buffer (50 mM PIPES pH7.0, 150 mM KCl, 5 mM MgCl2, 5 mM CaCl2) • 2 μL 10% CHAPSO • 5 μL HeLa cell membrane extract characterized for gamma-secretase activity • 7 μL 25 μM bacterially expressed CTFβ • 51 μL water • 1 μL compound in DMSO The reactions were incubated at 37° C. for 150 min and quenched with 25 μL 5× RIPA buffer (750mM NaCl, 5% NP-40, 2.5% DOC, 0.5% SDS, 250 mM Tris H8.0). Detection:
Gamma-secretase cleavage of the CTFβ substrate was assessed by incubating 50 μL of the reaction with 25 μL of 4 μg/mL biotinylated antibody 6E-10 which is specific for the N-terminal region of Aβ, and 25 μL of 1.5 μg/mL of a ruthinylated antibody G2-10, which is specific to the C-terminal region of Aβ40. The C-terminal region is present only after gamma secretase cleavage of Aβ. The antibodies were allowed to bind overnight at room temperature. The following day, 25 μL of 80 μg/mL streptavidin-coated Dynabeads (M-280) were added to each reaction, allowed to bind for 30 minutes, and quenched with 275 μL IGEN assay buffer. Quantification of the gamma-secretase cleavage products was carried out using an Origen Analyzer.

BACE2 [1] = molecular target: T1, BACE2 (Homo sapiens, UniProt P05067, K670N/M671F/D672E/A673V); assay: BACE2 cleavage of APP at the beta-secretase cleavage site (ALPHA); assay type: biochemical; conditions: result in words
T1 construct: IC50, BACE2 cleavage of APP at the beta-secretase cleavage site; other: MBP-biotinylated APP fusion protein with NFEV s; activity against BACE2 cleavage of APP at the beta-secretase position; other: result in words; biotin label
Description: (§1) The effect of Examples 1-4 on cleavage of APP at the beta-secretase cleavage site was assayed as follows:
(§2) • 25 μL 0.2 M Sodium Acetate, pH 4.5 • 10 μL 10× protease inhibitor cocktail (Roche, cat # 1836153) • 10 μL Bovine Serum Albumin (1 mg/mL solution) • 4 μL 5% CHAPS • 1 μL EDTA (150 mM, pH 4.5) • 2 μL DF • 4 μL MBP(Maltose binding protein)—biotininylated APP fusion protein containing the NFEV BACE cleavage site (bacterially expressed, 10 μM solution) • 1 μL DMSO or compound dissolved in DMSO • 2 μL BACE2 (CHO cell expressed protein, 250 nM) • 41 μL distilled water The reactions were incubated at 37° C. for 30 minutes, and were then quenched with 4 μL 1 M TrisHCl, pH 8.0. Detection of MBP Biotin APP(NF) Cleavage Product using ALPHA ALPHA Assay Mix was Prepared as Follows: • 20 μL Streptavidin Donor Beads (from AlphaScreen General IgG (Protein A) Detection Kit Perkin Elmer Life Sciences); 10,000 pts (Part Number 6760617M) • 20 μL Protein A Acceptor beads (from AlphaScreen General IgG (Protein A) Detection Kit Perkin Elmer Life Sciences); 10,000 pts (Part Number 6760617M) • 3.7 μL Affinity purified anti-NF antibody (203 μg/mL) (described in WO 02/094985) • 4.5 mL 0.1% BSA in PBS • 4 μL of quenched reaction mixture was combined with 46 μL of the assay mix. The reactions were incubated at room temperature overnight and read using the ALPHAQuest plate reader.

BACE2 [2] = molecular target: T2, BACE2 (Homo sapiens, UniProt P05067, A673V/D672E/K670N/M671F); assay: as above; assay type: biochemical; conditions: MBP-biotinylated APP fusion protein with NFEV site, pH 4.5, 30 minutes
T2 construct: IC50, BACE2 cleavage of APP at the beta-secretase cleavage site; other: MBP-biotinylated APP fusion protein with NFEV s; activity against BACE2 cleavage of APP at the beta-secretase position; other: result in words; biotin label
Description: as §1, §2

APP variant = assay: Antibody-masking ALPHA assay on biotinylated APP variant (Examples 5A/5B); assay type: binding; conditions: antibody to C-terminal region of Aβ (5A) and LN27 to N-terminal region of APP (5B); pH 4.5, 37° C., 1 hour
Description: A biotinylated APP variant (400 nM) was combined with Examples 1-3 under assay conditions (50 mM sodium acetate, pH 4.5; 1x Protease Inhibitor cocktail (Roche cat # 1836153); 100 μg/mL bovine serum albumin, 0.2% CHAPS). Incubations with vehicle, including DMSO (compound diluent), and incubations lacking the APP variant were carried out as controls for each experiment. Each mixture was incubated at 37° C. for 1 hour.
Thereafter, 70 μL of each incubation mixture was placed in its own well of a 96-well plate. 5 μL of 1 M Tris-Cl, pH 8.0 was added to each well to neutralize any binding reaction.
In Example 5A, a mixture of ALPHA beads was prepared from
(1) 20 μg/mL streptavidin donor beads;
(2) 20 μg/mL Protein A acceptor beads (from AlphaScreen General IgG (Protein A) Detection Kit Perkin Elmer Life Sciences; 10,000 pts (Part Number 6760617M)), containing 150 ng/mL of a rabbit polyclonal antibody directed against the C-terminal region of Aβ; and
(3) 0.1 % bovine serum albumin.
The beads were combined in a phosphate buffered saline.
In Example 5B, a mixture of ALPHA beads was prepared from […]
The following day, the plates were read using ALPHAQUEST, to measure the degree of binding of the antibodies. […]

Row | SMILES | inhibition of BACE (BACE1) cleavage/processing of full length APP (BACE1) | IC50 (gamma-secretase) [µM] | activity against BACE2 cleavage of APP at the beta-secretase position (BACE2 [1]) | IC50 (BACE2 [2]) [µM] | interaction with the APP variant near the antibody binding sites (APP variant)
1 | O=C(O)COc1cc2c(cc1CCCOc1ccccc1)OC(CCc1ccccc1)C2 (stereo not shown) [Example 1, {[6-(3-phenoxypropyl)-2-(2-phenylethyl)-2,3-dihydro-1-benzofuran-5-yl]oxy} acetic acid] | inhibit both BACE processing of APP | 29 | capable of inhibiting BACE2 cleavage of APP at the beta-secretase position with similar effectiveness to their inhibition of BACE1 cleavage at the same site | 9 | interacted with the APP variant within its Aβ domain, proximal to the C-terminal binding site
2 | O=C(O)COc1cc2c(cc1CCCOc1ccccc1Cl)OC(CCc1ccccc1)C2 (stereo not shown) [Example 2, {[6-[3-(2chlorophenoxy)propyl)-2-(2-phenylethyl)-2,3-dihydro-1-benzofuran-5-yl]oxy} acetic] | inhibit both BACE processing of APP | 8 | capable of inhibiting BACE2 cleavage of APP at the beta-secretase position with similar effectiveness to their inhibition of BACE1 cleavage at the same site | 4 | interacted with the APP variant within its Aβ domain, proximal to the C-terminal binding site
